Test results reported in publication PMC6326535, “Total Synthesis of Xanthoangelol B and Its Various Fragments: Toward Inhibition of Virulence Factor Production of Staphylococcus aureus” (Journal of Medicinal Chemistry, 2018).
Read-outs that look alike come from different tables or passages of the source.

Experiments:
Gram-positive bacteria = details: cited from earlier work
SaeRS TCS = test: microbe, parasite or virus in culture; assay type: cell-based, Staphylococcus aureus USA300; details: for IC50 / IC90: Staphylococcus aureus; for IC50: USA300, 8 h, read-out: IC50 against the SaeRS GFP reporter; for IC90: read-out: IC90 for the SaeRS GFP reporter; for inhibition of the SaeRS TCS: at 20 μM
[1] = system: methicillin-resistant S. aureus USA300; test: cells; assay type: cell-based, Staphylococcus aureus
[2] = system: hla, aur, γ-hemolysin, staphylokinase, sarA; assay type: cell-based, Staphylococcus aureus
HeLa cells [3] = test: LDH release cytotoxicity assay; assay type: cell-based; details: for IC50: Homo sapiens, HeLa, 72 h, read-out: IC50 for HeLa cell survival
S. aureus USA300 [4] = assay type: in vivo, Galleria mellonella; details: 72 h; for survival compared to the vehicle control: 5 × 10^6 CFU
S. aureus USA300 [5] = assay type: in vivo, Galleria mellonella; details: for bacterial burden compared to the vehicle control: dose of approximately 1 mg/kg
saeS knockout S. aureus = assay type: in vivo, Galleria mellonella; details: for reduction in CFU compared to the wild type infection group: saeS knockout infection, after 72 h
[6] = target: minimal kinase domain of SaeS (Staphylococcus aureus, UniProt Q840P7); test: biochemical
[7] = target: SaeS phosphotransferase (PT) activity (Staphylococcus aureus, UniProt Q840P7); assay type: biochemical; details: radioactively phosphorylated SaeS in the presence of SaeR
AgrC = AgrC (Staphylococcus aureus, UniProt O07911); assay type: biochemical; details: for IC50: 5 μM protein, autokinase activity
S. aureus USA300 [8] = details: for growth of S. aureus: at (up to) 64 μM, up to 20 h; for bacterial growth: 8 h
Description: Figure 1 Various concentrations of compounds were used to treat the USA300-Phlam GFP strain, and GFP expression was analyzed at 8 h. […] All the experiments were performed in triplicates, and significance was compared with control (no treatment) using one-way ANOVA.
56 at the concentration in the range from 2 μM to 64 μM. The cell density w as m onitored as the
optical density at 600 nm.
B act eri al growt h for 8 h i n t he presence of PM-56; C, B acterial growth for 20 h in the presence of
xant hoangel ol B 1; D, B act eri al growt h for 20 hours i n t he presence of PM-56. All the experi m ents
were perform ed in triplicates.

HeLa cells [9] = system: HeLa cells
kinase domain of SaeS = kinase domain of SaeS (Staphylococcus aureus, UniProt Q840P7); test: biochemical
Description: Next, we attempted to measure the direct binding of 1 and PM-56 with SaeS using the intrinsic fluorescence quenching assay. Since SaeS contains seven Tyr (and zero Trp) residues, the Tyr fluorescence at 306 nm was monitored before and after binding of 1 and PM-56. The reduction of fluorescence upon ligand binding was expressed as the percent fluorescence quenching, and the Kd value was calculated by nonlinear regression fitting (Figure S9).
Purified recom binant SaeS (1 µM ) w as incubated w ith various concentrations
of ei t her (A ) 1 or (B ) PM-56 for 15 m in at room tem perature. U pon excitation at 276 nm,
reductions of SaeS intensities at an emission peak of 306 nm w ere recorded and plotted against the
chem ical concentrations. D ata points were averaged from three independent m easurem ents and
expressed as m eans (dots) ± standard deviations of m eans (w hiskers). Solid lines represent the […]
The intrinsic fluorescence quenching assay to determine the binding affinities of […]
fluorescence of t h e kinase dom ain of SaeS w as recorded at an emission peak of 306 nm upon […]
Eclipse fluorescence spectrophotom eter (A gilent Technologies, U SA ). […]
chem icals but w ithout SaeS w ere used as blanks for correcting the fluorescence intensities. […]
by plotting the reductions of SaeS fluorescence intensity at each chem ical treatm ent against the […]

[10] = target: minimal kinase domain of SaeS / MBP-SaeS (Staphylococcus aureus, UniProt Q840P7); assay type: binding; details: 1.0 mM compound, 0.1 mM SaeS or 30 μM MBP-SaeS
[11] = set-up: method as in PMID 22452965; details: mice, single dose study; cited from earlier work
[12] = Staphylococcus aureus, USA300, Erythrocyte, 8 h, read-out: IC50 for the inhibition of erythrocyte hemolysis, human RBCs, 8 h incubation of USA300 with compound
[13] = read-out: IC50 for the inhibition of erythrocyte hemolysis, human RBCs, 8 h incubation of USA300 with compound

minimal kinase domain of SaeS, sequence (Q840P7 118-351): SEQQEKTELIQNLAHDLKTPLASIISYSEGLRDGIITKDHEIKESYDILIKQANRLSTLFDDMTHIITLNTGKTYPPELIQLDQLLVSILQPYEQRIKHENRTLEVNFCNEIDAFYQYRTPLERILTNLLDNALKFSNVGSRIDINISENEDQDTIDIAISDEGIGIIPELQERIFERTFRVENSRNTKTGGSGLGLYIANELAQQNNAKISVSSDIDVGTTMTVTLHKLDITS
AgrC, sequence (O07911 206-430 limits assumed): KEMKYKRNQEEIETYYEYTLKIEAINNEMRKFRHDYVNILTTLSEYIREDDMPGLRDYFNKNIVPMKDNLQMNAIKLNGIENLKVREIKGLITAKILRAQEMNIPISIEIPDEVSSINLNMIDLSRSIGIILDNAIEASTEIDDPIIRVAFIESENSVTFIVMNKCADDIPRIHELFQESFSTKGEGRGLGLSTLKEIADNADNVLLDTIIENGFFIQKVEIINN
kinase domain of SaeS, sequence (Q840P7 118-351): as the sequence (Q840P7 118-351) above
SaeS phosphotransferase (PT) activity, sequence (Q840P7 118-351): as above
minimal kinase domain of SaeS / MBP-SaeS, sequence (Q840P7 118-351): as above

| Compound | antibacterial activity against Gram-positive bacteria (Gram-positive bacteria) | inhibitory activity against SaeRS (SaeRS TCS) | IC50 (SaeRS TCS) | IC90 (SaeRS TCS) | IC50 [1, 12] | protection from hemolysis ([1]; at 4 μM) | protection from hemolysis ([1]; at 8 μM) | IC50 [1, 13] | level of sarA transcription [2] | cytotoxicity IC50 relative to IC50 for the GFP-reporter inhibition (HeLa cells [3]) | IC50 (HeLa cells [3]) | bacterial burden compared to the vehicle control (S. aureus USA300 [5]) | IC50 [6] | inhibition of phosphotransferase (PT) activity [7] | IC50 (AgrC) | growth of S. aureus (S. aureus USA300 [8]) | visible toxicity to HeLa cells (HeLa cells [9]) | Kd (kinase domain of SaeS) | inhibition of the SaeRS TCS (SaeRS TCS) | also measured |
| --- | --- | --- | --- | --- | --- | --- | --- | --- | --- | --- | --- | --- | --- | --- | --- | --- | --- | --- | --- | --- |
| 4-hydroxyderricin | shown to have an antibacterial activity | – | – | – | – | – | – | – | – | – | – | – | – | – | – | – | – | – | – | – |
| C=C(C)C(O)CC/C(C)=C/Cc1c(O)ccc(C(=O)/C=C/c2ccc(O)cc2)c1O (centres unmarked) [Compound 1, Xanthoangelol B] | – | excellent inhibitory activity | 2.1 µM | 8 µM | 4.62 µM | visible protection | comparable level of protection to that of saeS knockout mutants | 4.6 µM | not significantly affected | 10 fold | 19.7 µM | sharp decrease | 220 µM | no inhibition was observed | 339 µM | severely inhibited | did not produce substantially visible toxicity | 40 µM | – | survival compared to the vehicle control (S. aureus USA300 [4]; 2.0 mg/kg every 12 h): 3.5 fold; survival (S. aureus USA300 [4]; 3.1 mg/kg every 12 h): 90%; survival (S. aureus USA300 [4]; 4.1 mg/kg every 12 h): complete survival; decline of bacterial burden (S. aureus USA300 [5]; 4.1 mg/kg): 1.72 log10 CFU/worm; survival rate of G. mellonella infected with the knockout strain (saeS knockout S. aureus; 2.042 mg/kg body weight every 12 h for 72 h): 70%; reduction in CFU compared to the wild type infection group (saeS knockout S. aureus; 2.042 mg/kg): 76.8%; lower activity for AgrC compared to that for SaeS (AgrC): 1.5 fold; bacterial growth (S. aureus USA300 [8]; at up to 8 μM): did not disrupt bacterial growth; concentration from which growth inhibition started (S. aureus USA300 [8]; growth followed up to 20 h): ≥ 16 µM |
| C=C(C)C(O)CC/C(C)=C/Cc1c(O)ccc(C(=O)CC(O)c2ccc(O)cc2)c1O (centres unmarked) [PM-56, 1-(2,4-Dihydroxy-3-(6-hydroxy-3,7-dimethylocta-2,7-dien-1-yl)phenyl)-3-hydroxy-3-(4-hydroxyphenyl)propan-1-one] | – | excellent inhibitory activity | 4.3 µM | 10 µM | 3.97 µM | visible protection | comparable level of protection to that of saeS knockout mutants | 4 µM | not significantly affected | 7 fold | 28.9 µM | sharp decrease | 160 µM | no inhibition was observed | 140 µM | comparable growth to the control | did not produce substantially visible toxicity | 6.8 µM | – | survival compared to the vehicle control (S. aureus USA300 [4]; 2.1 mg/kg every 12 h): 3.5 fold; survival (S. aureus USA300 [4]; 3.2 mg/kg every 12 h): 90%; survival (S. aureus USA300 [4]; 4.3 mg/kg every 12 h): complete survival; decline of bacterial burden (S. aureus USA300 [5]; 4.3 mg/kg): 1.84 log10 CFU/worm; survival rate of G. mellonella infected with the knockout strain (saeS knockout S. aureus; 2.131 mg/kg body weight every 12 h for 72 h): 90%; reduction in CFU compared to the wild type infection group (saeS knockout S. aureus; 2.131 mg/kg): 83.3%; higher activity than 1 for SaeS [6]: 1.4 fold; higher activity than 1 for AgrC (AgrC): 2.4 fold; binding to SaeS by 1D CPMG and 1D STD NMR [10]: specifically binds to SaeS; bacterial growth (S. aureus USA300 [8]; at up to 16 μM): did not disrupt bacterial growth |
| COc1ccc(C(=O)/C=C/c2ccc(O)cc2)c(O)c1C/C=C(\C)CCC=C(C)C [xanthoangelol F, reference compound] | – | – | – | – | – | – | – | – | – | – | – | – | – | – | – | – | – | – | did not show inhibitory activity | – |
| CC(C)=CCC/C(C)=C/Cc1c(O)ccc(C(=O)/C=C/c2ccc(O)cc2)c1O [xanthoangelol] | shown to have an antibacterial activity | – | – | – | – | – | – | – | – | – | – | – | – | – | – | – | – | – | did not show inhibitory activity | absorption and distribution after oral administration [11]: absorbed and distributed rapidly; absorption efficiency [11]: low |
